Inconclusive results are not listed. *1 amine or outer side, *2 acyl side, *3 side chain or, on linkers, in order; H or OH if unused. Where a SMILES comes first, the peptide text is derived from it. Bridges are numbered along the chain shown (N, C = ends). Roman numbers before positions name the chains, in order. [ ]: non-standard residue; d: D form. Actinocin(1to9) = Cc1c2oc3c(C)ccc(C(=O)[*:2])c3nc-2c(C(=O)[*:1])c(N)c1=O; X1 = O=C1CC(C(=O)[*:2])N([*:1])C1; NMeV = CN[CH](C(=O)O)C(C)C; Sar = CNCC(=O)O
Test system: BDF1 mice, s.c. Lewis lung carcinoma, T/C %
Experiment: NCI In Vivo Anticancer Drug Screen. Data for tumor model Lewis Lung Carcinoma (subcutaneous) in B6D2F1 (BDF1) mice
Summary of the method: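 Readout: survival or tumor size, expressed as treated (T) over vehicle control (C). Transplantable tumor implanted in mice; compound given to the treated group.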

SMILES: [N-]=[N+]=CC(=O)CCC(N)C(=O)O (stereo not given)
- T/C (endpoint: median survival time, dose: 0.1 mg/kg/injection, schedule: Q01DX009 (ip), vehicle: saline, higher = longer survival): 121 % of control
- T/C (endpoint: median survival time, dose: 0.2 mg/kg/injection, schedule: Q01DX009 (ip), vehicle: saline, higher = longer survival): 110 % of control
- T/C (endpoint: median survival time, dose: 94.0 mg/kg/injection, schedule: Q01DX001 (ip), vehicle: saline, higher = longer survival): 120 % of control
- T/C (endpoint: median survival time, dose: 210.0 mg/kg/injection, schedule: Q01DX001 (ip), vehicle: saline, higher = longer survival): 107 % of control

SMILES: COc1cccc(/C=C/[N+](=O)[O-])c1
- T/C (endpoint: median survival time, dose: 20.0 mg/kg/injection, schedule: Q01DX009 (ip), vehicle: saline with Tween-80, higher = longer survival): 104 % of control

SMILES: c1ccc2c3c(ccc2c1)Sc1ccc2ccccc2c1N3
- T/C (endpoint: mean tumor weight, dose: 400.0 mg/kg/injection, schedule: Q01DX011 (ip), vehicle: other, higher = larger tumour): 78 % of control
- T/C (endpoint: mean tumor weight, dose: 600.0 mg/kg/injection, schedule: Q01DX011 (ip), vehicle: other, higher = larger tumour): 57 % of control
- T/C (endpoint: mean tumor weight, dose: 800.0 mg/kg/injection, schedule: Q01DX011 (ip), vehicle: other, higher = larger tumour): 57 % of control

SMILES: COc1ccc(-c2cc(=O)c3c(OC)c(OC)c(OC)c(OC)c3o2)c(OC)c1
- T/C (endpoint: mean tumor weight, dose: 12.5 mg/kg/injection, schedule: Q01DX011 (sc), vehicle: steriod suspending solution, higher = larger tumour): 72 % of control
- T/C (endpoint: mean tumor weight, dose: 25.0 mg/kg/injection, schedule: Q01DX011 (sc), vehicle: steriod suspending solution, higher = larger tumour): 88 % of control
- T/C (endpoint: mean tumor weight, dose: 50.0 mg/kg/injection, schedule: Q01DX011 (sc), vehicle: steriod suspending solution, higher = larger tumour): 87 % of control
- T/C (endpoint: mean tumor weight, dose: 100.0 mg/kg/injection, schedule: Q01DX011 (sc), vehicle: steriod suspending solution, higher = larger tumour): 86 % of control

SMILES: Cc1c2oc3c(C)ccc(C(=O)NC4C(=O)NC(C(C)C)C(=O)N5CCCC5C(=O)N(C)CC(=O)N(C)C(C(C)C)C(=O)OC4C)c3nc-2c(C(=O)NC2C(=O)NC(C(C)C)C(=O)N3CC(=O)CC3C(=O)N(C)CC(=O)N(C)C(C(C)C)C(=O)OC2C)c(N)c1=O (stereo not given) (I: TV[X1][Sar][NMeV] / II: TVP[Sar][NMeV]; ester I:1-I:C, II:1-II:C; linker I:N-II:N via Actinocin(1to9); configuration not given here)
- T/C (endpoint: median survival time, dose: 3.1 micrograms/kg/injection, schedule: Q01DX009 (ip), vehicle: water, higher = longer survival): 112 % of control
- T/C (endpoint: median survival time, dose: 6.2 micrograms/kg/injection, schedule: Q01DX009 (ip), vehicle: water, higher = longer survival): 111 % of control
- T/C (endpoint: median survival time, dose: 9.4 micrograms/kg/injection, schedule: Q04DX003 (ip), vehicle: water, higher = longer survival): 108 % of control
- T/C (endpoint: median survival time, dose: 12.5 micrograms/kg/injection, schedule: Q01DX009 (ip), vehicle: water, higher = longer survival): 87 % of control
- T/C (endpoint: median survival time, dose: 18.8 micrograms/kg/injection, schedule: Q04DX003 (ip), vehicle: water, higher = longer survival): 109 % of control
- T/C (endpoint: median survival time, dose: 37.5 micrograms/kg/injection, schedule: Q04DX003 (ip), vehicle: water, higher = longer survival): 108 % of control

SMILES: CCC[CH2][Sn]1([CH2]CCC)[N](S(=O)(=O)c2ccc(C)cc2)c2ccccc2[N]1S(=O)(=O)c1ccc(C)cc1
- T/C (endpoint: median survival time, dose: 1.5 mg/kg/injection, schedule: Q01DX009 (ip), vehicle: Klucel (hydroxypropylcellulose) (HPC), higher = longer survival): 111 % of control
- T/C (endpoint: median survival time, dose: 3.0 mg/kg/injection, schedule: Q01DX009 (ip), vehicle: Klucel (hydroxypropylcellulose) (HPC), higher = longer survival): 90 % of control
- T/C (endpoint: median survival time, dose: 6.0 mg/kg/injection, schedule: Q01DX009 (ip), vehicle: Klucel (hydroxypropylcellulose) (HPC), higher = longer survival): 101 % of control

SMILES: CS(=O)(=O)OCC(=O)NCCNC(=O)COS(C)(=O)=O
- T/C (endpoint: mean tumor weight, dose: 25.0 mg/kg/injection, schedule: Q01DX011 (ip), vehicle: saline, higher = larger tumour): 98 % of control
- T/C (endpoint: mean tumor weight, dose: 50.0 mg/kg/injection, schedule: Q01DX011 (ip), vehicle: saline, higher = larger tumour): 90 % of control
- T/C (endpoint: mean tumor weight, dose: 100.0 mg/kg/injection, schedule: Q01DX011 (ip), vehicle: saline, higher = larger tumour): 94 % of control
- T/C (endpoint: mean tumor weight, dose: 200.0 mg/kg/injection, schedule: Q01DX011 (ip), vehicle: saline, higher = larger tumour): 82 % of control

SMILES: CCOc1ccc2nc(S(N)(=O)=O)sc2c1
- T/C (endpoint: mean tumor weight, dose: 25.0 mg/kg/injection, schedule: Q01DX011 (ip), vehicle: carboxymethylcellulose (CMC), higher = larger tumour): 79 % of control
- T/C (endpoint: mean tumor weight, dose: 50.0 mg/kg/injection, schedule: Q01DX011 (ip), vehicle: carboxymethylcellulose (CMC), higher = larger tumour): 122 % of control
- T/C (endpoint: mean tumor weight, dose: 100.0 mg/kg/injection, schedule: Q01DX011 (ip), vehicle: carboxymethylcellulose (CMC), higher = larger tumour): 38 % of control

SMILES: Nc1ncnc2c1ccn2C1OC(CO)C(O)C1O (stereo not given)
- T/C (endpoint: mean tumor weight, dose: 0.32 mg/kg/injection, schedule: Q01DX011 (ip), vehicle: saline, higher = larger tumour): 77 % of control
- T/C (endpoint: mean tumor weight, dose: 0.63 mg/kg/injection, schedule: Q01DX011 (ip), vehicle: saline, higher = larger tumour): 60 % of control
- T/C (endpoint: mean tumor weight, dose: 1.25 mg/kg/injection, schedule: Q01DX011 (ip), vehicle: saline, higher = larger tumour): 84 % of control
- T/C (endpoint: median survival time, dose: 0.25 mg/kg/injection, schedule: Q01DX011 (ip), vehicle: other, higher = longer survival): 98 % of control
- T/C (endpoint: median survival time, dose: 0.5 mg/kg/injection, schedule: Q01DX011 (ip), vehicle: other, higher = longer survival): 89 % of control
- T/C (endpoint: median survival time, dose: 1.0 mg/kg/injection, schedule: Q01DX011 (ip), vehicle: other, higher = longer survival): 110 % of control
- T/C (endpoint: median survival time, dose: 2.0 mg/kg/injection, schedule: Q01DX011 (ip), vehicle: other, higher = longer survival): 101 % of control
